Activity calls are given as the source filed them.
What was measured:
[1] = molecular target: Peroxisome proliferator-activated receptor gamma/Nuclear receptor coactivator 3 (Homo sapiens, UniProt P37231); test: TR-FRET dose response biochemical High Throughput Screening assay for agonists of the steroid receptor coactivator 3 (SRC-3) recruitment by the peroxisome proliferator-activated receptor gamma (PPAR gamma): non-selective agonists. [Related pubchem assays: 1301 (Confirmation screen.), 1048 (Primary screen.)]; type: functional
[2] = molecular target: Peroxisome proliferator-activated receptor gamma/Nuclear receptor coactivator 2 (Homo sapiens, UniProt P37231); test: (§1) TR-FRET dose response biochemical High Throughput Screening assay for agonists of the steroid receptor coactivator 2 (SRC-2) recruitment by the peroxisome proliferator-activated receptor gamma (PPAR gamma): non-selective agonists. [Related pubchem assays: 1297, 1032 ]; type: functional
[3] = molecular target: Peroxisome proliferator-activated receptor gamma/Nuclear receptor coactivator 1 (Homo sapiens, UniProt P37231); test: as §1, with “1 (SRC-1)” for “2 (SRC-2)”, “assays (depositor defined):AID1300, AID1808, AID504735, AID631]” for “assays: 1297, 1032 ]”; type: protein assay
[4] = P. falciparum Dd2 growth inhibitors, dose response, SYBR Green, cherry-picked samples (AID 1159567); type: functional, cell-based
[5] = toxicity to human hepatoma HepG2 cells – cell-based, cherry-picked samples, cytotoxicity control, dose response (AID 1159577); type: functional
[6] = molecular target: T1, Short transient receptor potential channel 4 (Mus musculus, UniProt Q9QUQ5); test: block of DAMGO-driven TRPC4 calcium entry – cell-based, HEK293 TRPC4/mu-opioid, Fluo-4 calcium, dose response (AID 434942); type: functional;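 further: potency of inhibitors blocking the TRPC4 calcium response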
T1 sequence (Q9QUQ5 whole entry): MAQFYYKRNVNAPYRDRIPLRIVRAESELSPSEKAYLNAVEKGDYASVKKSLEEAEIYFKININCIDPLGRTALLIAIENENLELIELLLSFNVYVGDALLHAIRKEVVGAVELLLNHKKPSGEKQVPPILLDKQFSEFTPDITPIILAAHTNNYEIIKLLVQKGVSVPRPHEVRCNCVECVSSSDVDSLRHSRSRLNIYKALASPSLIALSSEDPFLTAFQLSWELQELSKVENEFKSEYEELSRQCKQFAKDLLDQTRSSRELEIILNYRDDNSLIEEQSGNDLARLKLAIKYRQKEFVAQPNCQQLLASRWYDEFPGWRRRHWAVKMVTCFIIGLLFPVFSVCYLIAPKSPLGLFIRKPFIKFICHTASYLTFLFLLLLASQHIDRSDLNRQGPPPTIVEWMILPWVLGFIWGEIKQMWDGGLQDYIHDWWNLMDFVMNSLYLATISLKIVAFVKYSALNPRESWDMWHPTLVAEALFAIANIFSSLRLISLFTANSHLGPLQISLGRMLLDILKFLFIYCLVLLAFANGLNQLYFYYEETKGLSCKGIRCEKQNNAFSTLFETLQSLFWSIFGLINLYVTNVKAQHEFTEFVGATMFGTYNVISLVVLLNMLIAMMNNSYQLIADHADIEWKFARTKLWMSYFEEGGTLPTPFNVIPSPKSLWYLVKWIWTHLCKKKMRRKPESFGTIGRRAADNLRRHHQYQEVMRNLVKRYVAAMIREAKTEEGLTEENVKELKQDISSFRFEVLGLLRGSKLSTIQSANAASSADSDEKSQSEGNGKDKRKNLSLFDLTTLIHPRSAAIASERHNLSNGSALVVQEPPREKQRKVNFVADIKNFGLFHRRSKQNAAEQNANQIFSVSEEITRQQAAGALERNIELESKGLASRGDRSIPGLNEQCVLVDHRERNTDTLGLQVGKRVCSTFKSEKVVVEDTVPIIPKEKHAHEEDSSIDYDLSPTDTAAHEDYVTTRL

Beta-galactosidase = Beta-galactosidase (Escherichia coli, UniProt Q8VNN2); test: detection-enzyme interference by beta-gal modulators – biochemical, E. coli enzyme, set 3, artefact control for CCR6 antagonist project, dose response (AID 504712); type: functional
Cytochrome P450 1A2 = molecular target: T2, Cytochrome P450 1A2 (Homo sapiens, UniProt P05177);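 further: PubChem cytochrome P450 panel assay, CYP1A2 panel member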
T2 sequence (P05177 whole entry): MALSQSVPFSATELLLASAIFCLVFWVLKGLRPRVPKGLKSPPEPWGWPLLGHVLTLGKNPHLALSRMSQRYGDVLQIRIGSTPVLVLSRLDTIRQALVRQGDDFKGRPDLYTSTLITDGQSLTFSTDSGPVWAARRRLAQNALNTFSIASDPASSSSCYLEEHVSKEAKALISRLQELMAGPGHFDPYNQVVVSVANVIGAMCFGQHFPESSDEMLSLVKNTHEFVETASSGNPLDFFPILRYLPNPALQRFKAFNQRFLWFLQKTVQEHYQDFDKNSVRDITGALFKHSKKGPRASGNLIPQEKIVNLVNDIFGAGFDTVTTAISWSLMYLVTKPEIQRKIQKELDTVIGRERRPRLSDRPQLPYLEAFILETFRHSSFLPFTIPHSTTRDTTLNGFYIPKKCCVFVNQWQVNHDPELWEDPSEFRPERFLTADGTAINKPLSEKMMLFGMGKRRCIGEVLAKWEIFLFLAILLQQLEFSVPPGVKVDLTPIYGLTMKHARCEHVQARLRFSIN

Cytochrome P450 2C9 = Cytochrome P450 2C9 (Homo sapiens, UniProt P11712)
[7] = Luminescence Cell-Based Dose Retest to Confirm Inhibitors of Cancer Stem Cells. [Related pubchem assays (depositor defined):AID2717, AID2721]; type: functional; conditions: Homo sapiens
[8] = microbe, parasite or virus in culture; type: functional; conditions: Mycobacterium tuberculosis
Estrogen receptor beta = Estrogen receptor beta (Homo sapiens, UniProt Q92731);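 further: recombinant ER-beta bound to coactivator SRC1 peptide in presence of estradiol agonist; inhibitors block coactivator peptide binding and lower the FRET signal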
Aminopeptidase N = molecular target: T3, Aminopeptidase N (Plasmodium falciparum FcB1/Columbia, UniProt O96935); test: malaria alanyl aminopeptidase activity blockers – biochemical, fluorogenic H-Leu-NHMec substrate, 1536-well (AID 1445); design: species or system Plasmodium falciparum 3D7, 3D7
T3 sequence (O96935 whole entry): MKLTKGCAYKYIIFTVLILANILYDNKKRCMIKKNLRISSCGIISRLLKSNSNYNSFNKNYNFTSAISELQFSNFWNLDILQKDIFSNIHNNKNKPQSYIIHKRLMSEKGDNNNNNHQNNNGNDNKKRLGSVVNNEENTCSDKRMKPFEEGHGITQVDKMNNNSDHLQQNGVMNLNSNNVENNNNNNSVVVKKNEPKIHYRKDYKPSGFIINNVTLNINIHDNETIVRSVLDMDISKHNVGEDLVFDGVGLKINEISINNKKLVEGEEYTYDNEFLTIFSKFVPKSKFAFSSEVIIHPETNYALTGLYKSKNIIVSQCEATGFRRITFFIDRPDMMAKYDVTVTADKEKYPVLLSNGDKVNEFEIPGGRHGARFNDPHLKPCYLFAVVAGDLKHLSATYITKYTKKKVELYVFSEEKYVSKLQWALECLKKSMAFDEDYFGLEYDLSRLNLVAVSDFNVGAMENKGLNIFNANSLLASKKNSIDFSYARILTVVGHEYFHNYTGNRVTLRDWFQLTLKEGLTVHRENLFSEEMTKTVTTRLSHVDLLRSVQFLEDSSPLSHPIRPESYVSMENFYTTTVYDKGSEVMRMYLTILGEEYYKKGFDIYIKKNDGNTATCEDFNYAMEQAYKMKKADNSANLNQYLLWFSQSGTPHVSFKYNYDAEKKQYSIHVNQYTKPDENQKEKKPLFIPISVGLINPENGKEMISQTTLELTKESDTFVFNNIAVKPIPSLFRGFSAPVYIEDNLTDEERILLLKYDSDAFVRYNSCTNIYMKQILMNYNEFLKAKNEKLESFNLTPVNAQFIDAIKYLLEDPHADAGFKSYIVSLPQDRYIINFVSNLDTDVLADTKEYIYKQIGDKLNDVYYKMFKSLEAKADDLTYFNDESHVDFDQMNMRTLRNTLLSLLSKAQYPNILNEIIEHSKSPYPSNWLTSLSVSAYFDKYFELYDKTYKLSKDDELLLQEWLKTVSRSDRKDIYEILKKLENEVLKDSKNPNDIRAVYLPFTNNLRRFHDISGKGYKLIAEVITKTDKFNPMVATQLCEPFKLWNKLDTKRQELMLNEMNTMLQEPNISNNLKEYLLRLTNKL

[9] = A Cell Based Secondary Assay To Explore Cytotoxicity of Compounds that Sensitize Mycobacterium Tuberculosis to Beta-Lactam Antibiotics.; type: functional
[10] = Dd2 parasite growth inhibition in erythrocytes – SYBR Green, dry powder samples, set 9, dose response (AID 1159568); type: functional, cell-based
Cytochrome P450 2C19 = Cytochrome P450 2C19 (Homo sapiens, UniProt P33261); test: Cytochrome panel assay with activity outcomes. Panel member name: p450-cyp2c19 Compounds with AC50 equal or less than 10 uM are considered active; type: functional; conditions: read-out: AC50
Cytochrome P450 2D6 = Cytochrome P450 2D6 (Homo sapiens, UniProt P10635);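 further: CYP2D6 member of a cytochrome P450 panel assay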
Cytochrome P450 3A4 = Cytochrome P450 3A4 (Homo sapiens, UniProt P08684);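 further: CYP3A4 tested as one member of a cytochrome P450 panel screen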

Sequence of Peroxisome proliferator-activated receptor gamma/Nuclear receptor coactivator 3 (P37231 whole entry): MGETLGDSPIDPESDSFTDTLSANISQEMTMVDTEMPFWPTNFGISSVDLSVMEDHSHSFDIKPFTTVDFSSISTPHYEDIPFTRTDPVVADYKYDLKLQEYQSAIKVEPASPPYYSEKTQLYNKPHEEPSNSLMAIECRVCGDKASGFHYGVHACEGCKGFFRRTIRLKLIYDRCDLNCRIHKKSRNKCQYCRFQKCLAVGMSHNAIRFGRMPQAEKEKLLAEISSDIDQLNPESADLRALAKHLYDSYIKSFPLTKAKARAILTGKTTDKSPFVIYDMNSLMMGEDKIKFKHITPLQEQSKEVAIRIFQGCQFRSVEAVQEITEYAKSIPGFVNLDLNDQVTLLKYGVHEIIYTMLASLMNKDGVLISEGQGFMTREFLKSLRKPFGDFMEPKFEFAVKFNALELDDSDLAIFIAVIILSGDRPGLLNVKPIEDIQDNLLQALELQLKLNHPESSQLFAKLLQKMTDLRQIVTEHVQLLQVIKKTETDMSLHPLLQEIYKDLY
Sequence of Peroxisome proliferator-activated receptor gamma/Nuclear receptor coactivator 3 (Q9Y6Q9 whole entry, further chain): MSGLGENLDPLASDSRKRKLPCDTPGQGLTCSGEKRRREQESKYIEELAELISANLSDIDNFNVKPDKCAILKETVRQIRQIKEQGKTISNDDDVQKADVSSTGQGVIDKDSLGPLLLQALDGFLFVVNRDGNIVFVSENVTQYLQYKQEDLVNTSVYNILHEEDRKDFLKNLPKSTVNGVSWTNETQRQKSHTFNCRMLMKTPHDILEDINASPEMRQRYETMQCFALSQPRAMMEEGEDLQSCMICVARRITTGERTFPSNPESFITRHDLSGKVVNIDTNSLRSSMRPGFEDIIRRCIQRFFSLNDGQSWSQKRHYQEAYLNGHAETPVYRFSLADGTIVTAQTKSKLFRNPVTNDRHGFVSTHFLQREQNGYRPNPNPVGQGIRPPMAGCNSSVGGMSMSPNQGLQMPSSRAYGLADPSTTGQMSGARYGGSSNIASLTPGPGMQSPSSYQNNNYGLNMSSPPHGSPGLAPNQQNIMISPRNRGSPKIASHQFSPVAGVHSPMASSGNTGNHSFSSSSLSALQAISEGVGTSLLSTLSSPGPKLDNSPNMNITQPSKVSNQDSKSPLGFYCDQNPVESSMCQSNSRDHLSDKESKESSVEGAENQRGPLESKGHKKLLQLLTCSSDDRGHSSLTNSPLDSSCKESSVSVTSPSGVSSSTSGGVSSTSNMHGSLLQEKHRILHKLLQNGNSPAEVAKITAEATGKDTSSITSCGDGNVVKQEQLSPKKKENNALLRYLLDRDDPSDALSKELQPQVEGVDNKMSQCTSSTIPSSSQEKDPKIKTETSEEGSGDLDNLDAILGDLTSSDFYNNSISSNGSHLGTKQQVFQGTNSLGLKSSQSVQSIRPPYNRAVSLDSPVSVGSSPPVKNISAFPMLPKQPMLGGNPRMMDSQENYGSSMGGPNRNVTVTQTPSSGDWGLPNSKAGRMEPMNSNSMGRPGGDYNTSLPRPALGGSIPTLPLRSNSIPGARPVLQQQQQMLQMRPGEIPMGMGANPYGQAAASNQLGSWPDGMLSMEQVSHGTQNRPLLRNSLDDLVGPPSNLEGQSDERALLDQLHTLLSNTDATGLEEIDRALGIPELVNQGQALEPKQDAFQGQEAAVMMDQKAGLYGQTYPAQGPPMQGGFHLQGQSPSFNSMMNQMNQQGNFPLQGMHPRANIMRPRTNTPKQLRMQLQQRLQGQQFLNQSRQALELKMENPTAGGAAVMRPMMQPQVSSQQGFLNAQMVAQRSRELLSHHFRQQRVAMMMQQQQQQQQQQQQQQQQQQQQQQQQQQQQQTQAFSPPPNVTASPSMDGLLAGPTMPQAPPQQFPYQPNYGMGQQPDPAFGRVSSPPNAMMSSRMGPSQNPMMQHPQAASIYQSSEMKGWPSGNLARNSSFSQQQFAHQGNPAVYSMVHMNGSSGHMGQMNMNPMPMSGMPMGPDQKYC
Sequence of Peroxisome proliferator-activated receptor gamma/Nuclear receptor coactivator 1 (P37231 whole entry): as the sequence (P37231 whole entry) above
Sequence of Peroxisome proliferator-activated receptor gamma/Nuclear receptor coactivator 1 (Q15788 whole entry, further chain): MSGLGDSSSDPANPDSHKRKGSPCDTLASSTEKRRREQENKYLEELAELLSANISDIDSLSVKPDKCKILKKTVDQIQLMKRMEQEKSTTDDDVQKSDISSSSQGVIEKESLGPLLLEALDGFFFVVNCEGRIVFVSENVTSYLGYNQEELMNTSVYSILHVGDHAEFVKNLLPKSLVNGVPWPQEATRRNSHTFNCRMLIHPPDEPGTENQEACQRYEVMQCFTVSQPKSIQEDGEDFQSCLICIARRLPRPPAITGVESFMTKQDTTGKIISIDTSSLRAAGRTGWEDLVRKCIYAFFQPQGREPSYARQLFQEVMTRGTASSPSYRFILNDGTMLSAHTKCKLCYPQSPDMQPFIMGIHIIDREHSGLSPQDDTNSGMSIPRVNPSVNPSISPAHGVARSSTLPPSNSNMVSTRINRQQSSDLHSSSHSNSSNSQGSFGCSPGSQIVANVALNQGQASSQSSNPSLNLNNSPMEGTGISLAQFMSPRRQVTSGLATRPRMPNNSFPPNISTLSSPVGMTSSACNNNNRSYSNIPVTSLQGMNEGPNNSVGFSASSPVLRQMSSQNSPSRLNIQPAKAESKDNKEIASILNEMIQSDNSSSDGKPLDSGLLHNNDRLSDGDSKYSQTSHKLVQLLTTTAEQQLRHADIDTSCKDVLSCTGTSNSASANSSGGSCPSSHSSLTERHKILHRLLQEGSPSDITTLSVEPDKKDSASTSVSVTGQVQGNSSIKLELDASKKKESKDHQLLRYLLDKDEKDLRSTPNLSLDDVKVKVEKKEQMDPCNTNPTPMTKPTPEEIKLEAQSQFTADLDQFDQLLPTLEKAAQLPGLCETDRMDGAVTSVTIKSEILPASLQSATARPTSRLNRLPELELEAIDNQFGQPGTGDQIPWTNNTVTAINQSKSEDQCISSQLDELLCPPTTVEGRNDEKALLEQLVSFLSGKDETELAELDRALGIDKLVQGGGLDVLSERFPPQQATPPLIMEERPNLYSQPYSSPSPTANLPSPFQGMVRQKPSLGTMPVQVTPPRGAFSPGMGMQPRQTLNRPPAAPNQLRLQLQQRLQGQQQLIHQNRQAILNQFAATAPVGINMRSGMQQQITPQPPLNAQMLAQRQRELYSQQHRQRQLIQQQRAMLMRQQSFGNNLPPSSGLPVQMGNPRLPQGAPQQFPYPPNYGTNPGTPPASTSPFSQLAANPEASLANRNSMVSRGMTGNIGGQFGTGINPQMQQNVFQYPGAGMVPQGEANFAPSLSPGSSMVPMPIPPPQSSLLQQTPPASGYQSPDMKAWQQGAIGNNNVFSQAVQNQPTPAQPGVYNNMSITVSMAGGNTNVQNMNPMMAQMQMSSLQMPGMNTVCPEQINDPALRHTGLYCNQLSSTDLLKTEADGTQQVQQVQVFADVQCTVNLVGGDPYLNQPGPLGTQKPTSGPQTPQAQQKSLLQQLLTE
Sequence of Beta-galactosidase (Q8VNN2 whole entry): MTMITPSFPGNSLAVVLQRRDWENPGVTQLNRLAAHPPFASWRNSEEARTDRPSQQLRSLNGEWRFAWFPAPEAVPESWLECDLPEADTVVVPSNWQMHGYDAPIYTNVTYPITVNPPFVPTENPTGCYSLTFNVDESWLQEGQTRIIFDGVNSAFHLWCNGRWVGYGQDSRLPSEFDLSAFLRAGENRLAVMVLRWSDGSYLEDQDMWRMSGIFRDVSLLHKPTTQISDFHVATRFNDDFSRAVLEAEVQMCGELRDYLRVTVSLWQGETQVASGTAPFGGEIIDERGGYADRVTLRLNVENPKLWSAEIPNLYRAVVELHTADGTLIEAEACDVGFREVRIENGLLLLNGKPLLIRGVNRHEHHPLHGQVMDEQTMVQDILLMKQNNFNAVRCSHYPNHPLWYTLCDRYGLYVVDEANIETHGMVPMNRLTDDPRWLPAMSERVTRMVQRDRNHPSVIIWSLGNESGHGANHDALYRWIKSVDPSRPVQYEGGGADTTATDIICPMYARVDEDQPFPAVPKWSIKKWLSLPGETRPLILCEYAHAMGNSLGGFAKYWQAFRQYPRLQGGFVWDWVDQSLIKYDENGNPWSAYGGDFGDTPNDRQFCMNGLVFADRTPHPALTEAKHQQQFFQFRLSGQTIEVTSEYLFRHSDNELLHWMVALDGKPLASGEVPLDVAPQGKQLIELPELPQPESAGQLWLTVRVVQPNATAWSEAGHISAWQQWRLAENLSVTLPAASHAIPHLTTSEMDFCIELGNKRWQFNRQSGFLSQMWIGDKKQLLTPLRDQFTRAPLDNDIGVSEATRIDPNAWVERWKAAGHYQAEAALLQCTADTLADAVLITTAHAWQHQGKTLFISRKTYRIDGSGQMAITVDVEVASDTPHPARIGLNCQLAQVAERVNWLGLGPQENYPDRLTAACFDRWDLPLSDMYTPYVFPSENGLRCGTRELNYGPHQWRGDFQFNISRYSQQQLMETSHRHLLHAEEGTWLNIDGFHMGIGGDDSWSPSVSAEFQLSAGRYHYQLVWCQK

SMILES: Cc1ccc2nc(NC(=S)NC(=O)c3ccco3)sc2c1
- EC50 [1]: > 79.4 µM (not active)
- EC50 [2]: 51.8 µM (not active)
- EC50 [3]: 43 µM (inactive)

SMILES: Cc1cccc(-c2ccc([C@H]3[C@@H](CO)N4CCCCN(CCC(F)(F)F)C[C@H]34)cc2)c1
- AC50 [4]: 1.01 µM (active)
- AC50 [5]: 8.62 µM (active)

SMILES: NC(=O)c1nsc(C(=O)N(Cc2ccccc2Cl)C(C(=O)NCC2CCCO2)c2ccc(O)cc2)c1N (stereo unspecified)
- EC50 [6]: 5.96 µM (active)

SMILES: CCn1c(=O)cc(SCC(=O)NCc2ccc(C)cc2)c2ccccc21
- EC50 [1]: > 79.4 µM (not active)
- EC50 [2]: > 26.5 µM (not active)
- EC50 [3]: > 79.4 µM (inactive)

SMILES: O=C(CNS(=O)(=O)c1ccc2ccccc2c1)OCC(=O)c1ccc(Br)s1
- EC50 [1]: 36.5 µM (not active)
- EC50 [2]: 4.58 µM (active)
- EC50 [3]: 8.72 µM (active)

SMILES: Oc1c(/C=N/Cc2ccncc2)sc2ccccc12
- IC50 (Beta-galactosidase): > 66.6 µM (inactive)

SMILES: c1ccc(Cn2c(CN3CCCC3)nc3ccccc32)cc1
- AC50 (Cytochrome P450 1A2): 14.1 µM (inconclusive)
- EC50 [6]: 2.11 µM (active)
- AC50 (Cytochrome P450 2C9): 35.5 µM (inconclusive)

SMILES: CCCCOC(=O)c1c(C)oc2ccc(NS(=O)(=O)c3ccc4c5c(cccc35)C(=O)N4)cc12
- AC50 [7]: 9.4 µM (active)
- CC50 [8]: > 40 µM (active)
- IC50 (Estrogen receptor beta): 13.5 µM (active)

SMILES: O=C1C=CC(=O)N1
- IC50 (Beta-galactosidase): > 66.6 µM (inactive)

SMILES: CC1=NN(c2ccccc2)C(=O)C1/C=N/c1ccccc1O (stereo unspecified)
- IC50 (Aminopeptidase N): 12.8 µM (active)
- CC50 [9]: > 40 µM (active)

SMILES: O=C(Nc1ccc(Cl)cc1)N1C[C@@H]2[C@H](c3ccccc31)[C@@H](CO)N2CC1CCCCC1
- AC50 [10]: 5.79 µM (active)

SMILES: COc1ccc2cc(C#N)c(SCC(=O)NNC(=O)Cc3ccccc3)nc2c1
- AC50 (Cytochrome P450 2C19): 0.0398 µM (inconclusive)
- AC50 (Cytochrome P450 2D6): 2.51 µM (inconclusive)
- EC50 [1]: > 79.4 µM (not active)
- EC50 [2]: 11.1 µM (not active)
- EC50 [3]: 10.7 µM (inactive)
- AC50 (Cytochrome P450 3A4): 1.26 µM (inconclusive)

SMILES: C[C@H](CO)N1C[C@H](C)[C@H](CN(C)Cc2ccc(-c3ccccc3)cc2)OCc2ccccc2-c2ccccc2C1=O
- AC50 [4]: 5.19 µM (active)
- AC50 [5]: > 39 µM (inactive)

Reference: ChEMBL document CHEMBL1201862, “PubChem BioAssay data set” (2004)
